Structures can show the parent of a compound that is named as a salt. One block for each compound: values may come before it.
Columns and labels:
[1] = test system: B16 F0 murine melanoma cells; test: Colony forming technique: chemotherapeutic and radiotherapeutic (^125I) effects in vitro; format: cell-based; settings: for % of inhibition: radiotherapeutic effects alone
Procedure: The colony forming technique is involved, that is to say the growth of colonies of clones starting from tumour cells (B16 F0 murine melanoma cells) inoculated at a low concentration. This method makes it possible to visualize the cytotoxic and cytostatic properties of the compounds studied. The study was carried out in three parts:
The experiment is carried out on 6-well plates where 200 cells are inoculated in 2 ml of DMEM medium. After 20 hours, the medium is withdrawn and replaced with 2 ml of medium comprising the labelled compound at the desired concentration. This study is carried out in comparison with control wells comprising DMEM medium alone. […] The plates are incubated for 8 days and then the medium is withdrawn. The wells are rinsed with PBS and methanol is added for 3 minutes. Once attached, the cells are coloured with crystal violet with a contact time of 3 minutes. Subsequently, the colonies comprising more than 50 cells are counted using a dedicated counter. The growth of the treated colonies of cells is quantified in comparison with the controls. The activity of the product is expressed by a percentage of inhibition:
100−[(number of treated colonies)/(number of control colonies)]×100

[2] = Elimination of the molecules: cumulative urinary and faecal excretion 0-72 hours; format: in vivo, mouse; settings: for Faecal elimination 0-72 hours (Faeces) / Urinary and faecal elimination 0-72 hours (Total) / Urinary elimination 0-72 hours (Urine): cumulative excretion 0-72 hours; for Faecal elimination 0-72 hours (Faeces) / Urinary elimination 0-72 hours (Urine): mice in metabolic cages; for Urinary and faecal elimination 0-72 hours (Total): urine + faeces
[3] = test system: grafted B16 F0 murine melanoma tumour; test: Biodistribution of the ^125I-labelled molecules in the melanoma-bearing mouse (autoradiography of whole-body sections); settings: for Biodistribution, Mean, B 16: B 16 tumour; for tumour concentration, times higher than with BZA: at 72 hours (FIG. 1B); for tumour concentration, % of the injected dose per gram of tumour: from the first hour
Procedure: The distribution of the radioactivity of the various compounds in the body (tumour and other organs) is quantified using an Ambis 4000 image analyzer on sections of whole animals. […] All the in vivo experimentation is carried out within the context defined by French legislation relating to animal experimentation.
The B16 F0 melanoma cells are provided by the ATCC and cultured in monolayers in culture medium (MEM, Invitrogen) supplemented with 10% foetal calf serum and antibiotics. The cultures are maintained by subculturing after trypsinization. The cells of the first passages are frozen and stored in liquid nitrogen. For the transplanting, the cells in culture at confluence are detached by trypsinization and washed with phosphate buffer (PBS).
The distribution of the radioactivity present in the sections is analyzed using an AMBIS 4000 analyzer (Scanalytics, CSPI, San Diego, Calif.), which is a proportional counter with a multiwire chamber validated and calibrated beforehand for the monitoring of iodine in the mouse. The measurements require acquisition times of 1000 minutes. […] The value of radioactivity per unit of surface area (cpm/mm^2) is converted to concentration (kBq/g) and expressed as percentage of the injected dose/g of tissue (% ID/g).

tumour = test: Dosimetry with regard to the tumour (MIRD programme, extrapolated to ^131I); settings: for Effective period: extrapolated to 131I labelling; for Biological period: from biodistribution data

SMILES: [125I-].[Na+] [Na^125I, sodium iodide Na^125I, reference compound]
effect on colony growth (in words) ([1]; comparison for the compounds labelled with iodine-125 with a high specific activity): without effect

SMILES: CCN(CC)CCNC(=O)c1cccc2c(=O)c3cc([125I])ccc3[nH]c12.Cl.Cl [[^125I]-84, [^125I]-N-(2-diethylaminoethyl)-9,10-dihydro-7-iodo-9-oxoacridine-4-carboxamide dihydrochloride]
Cumulative effect (% inhib) ([1]; cold compound 84 at 0.75 μM with labelled [^125I]-84, activity 0): 17.3 % inhib
Cumulative effect (% inhib) ([1]; cold compound 84 at 0.75 μM with labelled [^125I]-84, activity 1.5 kBq): 18.3 % inhib
Cumulative effect (% inhib) ([1]; cold compound 84 at 0.75 μM with labelled [^125I]-84, activity 6 kBq): 22 % inhib
Cumulative effect (% inhib) ([1]; cold compound 84 at 0.75 μM with labelled [^125I]-84, activity 12 kBq): 40.3 % inhib
Cumulative effect (% inhib) ([1]; cold compound 84 at 0.75 μM with labelled [^125I]-84, activity 24 kBq): 54 % inhib
Cumulative effect (% inhib) ([1]; cold compound 84 at 0.75 μM with labelled [^125I]-84, activity 48 kBq): 88 % inhib
% of inhibition ([1]; activity 1.5 kBq, concentration 9.31 pM): 4.5%
% of inhibition ([1]; activity 6 kBq, concentration 37.23 pM): 12.4%
% of inhibition ([1]; activity 12 kBq, concentration 74.5 pM): 29%
% of inhibition ([1]; activity 24 kBq, concentration 148.9 pM): 30%
% of inhibition ([1]; activity 48 kBq, concentration 297.8 pM): 69%

SMILES: CCN(CC)CCNC(=O)c1cnc2cc(I)ccc2n1.Cl.Cl [compound 46, N-(2-diethylaminoethyl)-6-iodoquinoxaline-2-carboxamide dihydrochloride]
Faecal elimination 0-72 hours (Faeces) [2]: 18.0%
Urinary and faecal elimination 0-72 hours (Total) [2]: 88.2%
Urinary elimination 0-72 hours (Urine) [2]: 70.2%
elimination route (in words) ([2]; urinary versus faecal, 0-72 hours): predominantly in the urine
Biodistribution, Mean, B 16 ([3]; 1 H): 17.00
Biodistribution, Mean, B 16 ([3]; 3 H): 27.68
Biodistribution, Mean, B 16 ([3]; 6 H): 40.70
Biodistribution, Mean, B 16 ([3]; 24 H): 21.67
Biodistribution, Mean, B 16 ([3]; 72 H): 12.45
Biodistribution, Mean, BM ([3]; BM, 1 H): 4.58
Biodistribution, Mean, GB ([3]; 6 H): 33.38
Biodistribution, Mean, Ic ([3]; 1 H): 15.22
Biodistribution, Mean, Ic ([3]; 3 H): 14.63
Biodistribution, Mean, Ic ([3]; 6 H): 17.45
Biodistribution, Mean, Sc ([3]; 1 H): 24.33
Biodistribution, Mean, Sc ([3]; 3 H): 20.33
Biodistribution, Mean, Sc ([3]; 6 H): 21.09
Biodistribution, Mean, Sc ([3]; 72 H): 2.23
tumour concentration, times higher than with BZA [3]: 16 times
Biodistribution, Mean, blood ([3]; 1 H): 3.45
Biodistribution, Mean, blood ([3]; 3 H): 2.91
Biodistribution, Mean, blood ([3]; 6 H): 3.09
Biodistribution, Mean, brain ([3]; 1 H): 2.34
Biodistribution, Mean, brain ([3]; 3 H): 1.03
tumour concentration, % of the injected dose per gram of tumour [3]: 17 % ID/g
Biodistribution, Mean, kidney ([3]; 1 H): 16.46
Biodistribution, Mean, kidney ([3]; 3 H): 9.30
Biodistribution, Mean, kidney ([3]; 6 H): 7.69
Biodistribution, Mean, liver ([3]; 1 H): 13.18
Biodistribution, Mean, liver ([3]; 3 H): 8.87
Biodistribution, Mean, liver ([3]; 6 H): 7.53
Biodistribution, Mean, liver ([3]; 24 H): 1.49
Biodistribution, Mean, lungs ([3]; 1 H): 7.83
Biodistribution, Mean, lungs ([3]; 3 H): 5.68
Biodistribution, Mean, lungs ([3]; 6 H): 4.46
Biodistribution, Mean, muscle ([3]; 1 H): 2.04
Biodistribution, Mean, muscle ([3]; 3 H): 0.86
Biodistribution, Mean, muscle ([3]; 6 H): 0.87
Biodistribution, Mean, pancreas ([3]; 1 H): 7.60
Biodistribution, Mean, spleen ([3]; 1 H): 14.21
Biodistribution, Mean, spleen ([3]; 3 H): 4.69
Biodistribution, Mean, thyroid ([3]; 3 H): 39.76
Biodistribution, Mean, thyroid ([3]; 6 H): 83.77
Biodistribution, Mean, thyroid ([3]; 24 H): 94.22
Biodistribution, Mean, uvea ([3]; 1 H): 33.82
Biodistribution, Mean, uvea ([3]; 3 H): 24.79
Biodistribution, Mean, uvea ([3]; 6 H): 32.30
Biodistribution, Mean, uvea ([3]; 24 H): 32.44
Biodistribution, Mean, uvea ([3]; 72 H): 25.26
Effective period (tumour): 49.3 h
Biological period (tumour): 66.1 hours

Faecal elimination 0-72 hours (Faeces) [2]: 19.9%
Urinary and faecal elimination 0-72 hours (Total) [2]: 87.1%
Urinary elimination 0-72 hours (Urine) [2]: 67.2%
Biodistribution, Mean, B 16 ([3]; 1 H): 19.07
Biodistribution, Mean, B 16 ([3]; 3 H): 20.34
Biodistribution, Mean, B 16 ([3]; 6 H): 27.38
Biodistribution, Mean, B 16 ([3]; 24 H): 18.28
Biodistribution, Mean, B 16 ([3]; 72 H): 10.86
Biodistribution, Mean, GB ([3]; 3 H): 50.82
Biodistribution, Mean, GB ([3]; 6 H): 55.80
Biodistribution, Mean, Ic ([3]; 1 H): 24.45
Biodistribution, Mean, Ic ([3]; 3 H): 23.54
Biodistribution, Mean, Ic ([3]; 6 H): 26.72
Biodistribution, Mean, Ic ([3]; 24 H): 1.21
Biodistribution, Mean, Sc ([3]; 1 H): 25.53
Biodistribution, Mean, Sc ([3]; 3 H): 24.89
Biodistribution, Mean, Sc ([3]; 6 H): 22.21
Biodistribution, Mean, Sc ([3]; 24 H): 2.16
tumour concentration, times higher than with BZA [3]: 14 times
Biodistribution, Mean, blood ([3]; 1 H): 3.31
Biodistribution, Mean, blood ([3]; 3 H): 3.47
Biodistribution, Mean, blood ([3]; 6 H): 2.50
tumour concentration, % of the injected dose per gram of tumour [3]: 19.1 % ID/g
Biodistribution, Mean, kidney ([3]; 1 H): 18.29
Biodistribution, Mean, kidney ([3]; 3 H): 13.10
Biodistribution, Mean, kidney ([3]; 6 H): 7.98
Biodistribution, Mean, liver ([3]; 1 H): 13.79
Biodistribution, Mean, liver ([3]; 3 H): 7.77
Biodistribution, Mean, liver ([3]; 6 H): 3.89
Biodistribution, Mean, lungs ([3]; 1 H): 8.33
Biodistribution, Mean, lungs ([3]; 3 H): 6.88
Biodistribution, Mean, lungs ([3]; 6 H): 3.34
Biodistribution, Mean, muscle ([3]; 1 H): 2.00
Biodistribution, Mean, muscle ([3]; 3 H): 1.41
Biodistribution, Mean, muscle ([3]; 6 H): 0.45
Biodistribution, Mean, pancreas ([3]; 1 H): 21.47
Biodistribution, Mean, pancreas ([3]; 3 H): 9.71
Biodistribution, Mean, spleen ([3]; 1 H): 18.88
Biodistribution, Mean, spleen ([3]; 3 H): 16.71
Biodistribution, Mean, thyroid ([3]; 1 H): 28.75
Biodistribution, Mean, thyroid ([3]; 3 H): 125.51
Biodistribution, Mean, thyroid ([3]; 6 H): 16.38
Biodistribution, Mean, thyroid ([3]; 72 H): 53.26
Biodistribution, Mean, uvea ([3]; 1 H): 21.04
Biodistribution, Mean, uvea ([3]; 3 H): 31.76
Biodistribution, Mean, uvea ([3]; 6 H): 28.78
Biodistribution, Mean, uvea ([3]; 24 H): 19.22
Biodistribution, Mean, uvea ([3]; 72 H): 19.78
Effective period (tumour): 51.2 h
Biological period (tumour): 69.7 hours
SMILES: CCCN(CCC)CCCCNC(=O)c1ccc2cc(I)ccc2n1 [compound 49, N-(4-dipropylaminobutyl)-6-iodoquinoline-2-carboxamide dihydrochloride]

Faecal elimination 0-72 hours (Faeces) [2]: 38.4%
Urinary and faecal elimination 0-72 hours (Total) [2]: 48.8%
Urinary elimination 0-72 hours (Urine) [2]: 10.4%
tumour concentration, times higher than with BZA [3]: 22 times
Effective period (tumour): 112.5 h
Biological period (tumour): 268.9 hours
SMILES: CCN(CC)CCNC(=O)c1cccc2c(=O)c3cc(I)ccc3[nH]c12 [compound 84, N-(2-diethylaminoethyl)-9,10-dihydro-7-iodo-9-oxoacridine-4-carboxamide hydrochloride]

SMILES: CCN(CC)CCNC(=O)c1ccc2cncc(I)c2n1.Cl.Cl [compound 142, N-(2-diethylaminoethyl)-8-iodo-1,6-naphthyridine-2-carboxamide dihydrochloride]
Faecal elimination 0-72 hours (Faeces) [2]: 29.4%
Urinary and faecal elimination 0-72 hours (Total) [2]: 98.3%
Urinary elimination 0-72 hours (Urine) [2]: 68.9%
Biodistribution, Mean, B 16 ([3]; 1 H): 23.22
Biodistribution, Mean, B 16 ([3]; 3 H): 13.87
Biodistribution, Mean, B 16 ([3]; 6 H): 11.42
Biodistribution, Mean, B 16 ([3]; 24 H): 8.37
Biodistribution, Mean, B 16 ([3]; 72 H): 3.31
Biodistribution, Mean, GB ([3]; 3 H): 41.51
Biodistribution, Mean, GB ([3]; 6 H): 28.67
Biodistribution, Mean, Ic ([3]; 1 H): 32.83
Biodistribution, Mean, Ic ([3]; 3 H): 47.65
Biodistribution, Mean, Ic ([3]; 6 H): 43.48
Biodistribution, Mean, Ic ([3]; 24 H): 0.82
Biodistribution, Mean, Sc ([3]; 1 H): 17.58
Biodistribution, Mean, Sc ([3]; 3 H): 9.76
Biodistribution, Mean, Sc ([3]; 6 H): 9.17
Biodistribution, Mean, Sc ([3]; 24 H): 0.62
Biodistribution, Mean, Sc ([3]; 72 H): 2.13
tumour concentration (in words) ([3]; ^125I-labelled compound, melanoma-bearing mouse): very high tumour concentration from one hour
Biodistribution, Mean, blood ([3]; 1 H): 2.21
Biodistribution, Mean, blood ([3]; 3 H): 1.88
Biodistribution, Mean, blood ([3]; 6 H): 1.36
Biodistribution, Mean, brain ([3]; 1 H): 0.35
Biodistribution, Mean, kidney ([3]; 1 H): 4.01
Biodistribution, Mean, kidney ([3]; 3 H): 1.51
Biodistribution, Mean, kidney ([3]; 6 H): 1.20
Biodistribution, Mean, liver ([3]; 1 H): 3.92
Biodistribution, Mean, liver ([3]; 3 H): 2.27
Biodistribution, Mean, liver ([3]; 6 H): 1.49
Biodistribution, Mean, lungs ([3]; 1 H): 2.36
Biodistribution, Mean, lungs ([3]; 3 H): 1.87
Biodistribution, Mean, lungs ([3]; 6 H): 1.26
Biodistribution, Mean, muscle ([3]; 1 H): 0.86
Biodistribution, Mean, muscle ([3]; 3 H): 0.43
Biodistribution, Mean, muscle ([3]; 6 H): 0.24
Biodistribution, Mean, pancreas ([3]; 1 H): 1.78
Biodistribution, Mean, spleen ([3]; 1 H): 5.38
Biodistribution, Mean, spleen ([3]; 3 H): 0.93
Biodistribution, Mean, thyroid ([3]; 1 H): 20.16
Biodistribution, Mean, thyroid ([3]; 3 H): 41.44
Biodistribution, Mean, thyroid ([3]; 6 H): 56.95
Biodistribution, Mean, thyroid ([3]; 24 H): 115.66
Biodistribution, Mean, uvea ([3]; 1 H): 24.11
Biodistribution, Mean, uvea ([3]; 3 H): 20.30
Biodistribution, Mean, uvea ([3]; 6 H): 13.15
Biodistribution, Mean, uvea ([3]; 24 H): 10.00
Biodistribution, Mean, uvea ([3]; 72 H): 13.06
Effective period (tumour): 26.1 h
Biological period (tumour): 30.2 hours

From patent US20100061928A1, “LABELLED ANALOGUES OF HALOBENZAMIDES AS RADIOPHARMACEUTICALS” (Institut National De La Sante et De La Recherche Medicale …, priority 2006, published 2010)
